Data on 25 compounds can be found in patent publication US20090029979A1, “5-HTX MODULATORS” (BIO-MEDISINSK INNOVASJON AS, priority 2005, published 2009).

Read-outs that look alike come from different tables or passages of the source.

Test [1] has as its target T1, human 5-HT4(b) receptors (Homo sapiens, UniProt Q13639).
T1 construct: expressed in transfected cells
Briefly: Adenylyl cyclase assay in membranes of HEK293 cells stably expressing human 5-HT4(b) receptors. The following applies: for Kb: where n = 2, ± half-range, read-out: Antagonist pKb value (pKb ± SEM) (converted). The format is biochemical. As to the method: (§1) The development of HEK293 cell lines stably expressing human 5-HT4(b) receptors was described and published previously (Bach et al. 2001). Briefly, HEK293 cells (ATCC) were grown in Dulbecco's modified Eagle's medium with 10% fetal calf serum and penicillin (100 U/ml) and streptomycin (100 μg/ml). Cells were transfected with plasmid DNA (pcDNA3.1(−) containing human 5-HT4(b) receptor cDNA) using SuperFect Transfection Reagent (QIAGEN) according to the manufacturers protocol. Serial dilutions of transfected cells were plated in 96 well plates containing G418 (geneticin; Amersham) at 0.4 mg/ml, and isolated single colonies of cells transformed to the neomycin-resistant phenotype were expanded and tested for expression of serotonin receptors by measuring serotonin-stimulated adenylyl cyclase activity (Themmen et al. 1993). Transformed cells were always grown in the presence of G418 (0.4 mg/ml). For binding and adenylyl cyclase analysis, stable cell lines were grown and maintained in UltraCULTURE™ general purpose serum-free medium (BioWhittaker, Walkersville, Md., USA), supplemented with L-glutamine (2 mM), penicillin (100 U/ml) and streptomycin (100 μg/ml).
(§2) Membranes were prepared from stably transfected HEK293 cells cultured on 150-mm cell culture dishes and grown to 80% confluence in serum-free medium (UltraCULTURE™, BioWhittaker) with penicillin (10 U/ml) and 2 mM L-Glutamine (BioWhittaker). Cells were washed twice with 10 ml ice-cold HBSS, scraped with a rubber policeman in 10 ml ice-cold HBSS and collected by centrifugation at 800 g for 5 min at 4° C. The cell pellet was resuspended in 1 ml/dish ice-cold STE buffer (27% (w/v) sucrose, 50 mM Tris-HCl, pH 7.5 at 20° C., 5 mM EDTA) and homogenized with an Ultra-Turrax (IKA) homogenizer, using five 10 s bursts with 30 s cooling in ice-water between bursts. To remove nuclei, the homogenate was centrifuged at 300 g for 5 min at 4° C. and the supernatant was further centrifuged at 17000 g for 20 min at 4° C. and the supernatant removed. The crude membrane pellet was resuspended with ten strokes of tight fitting pestle B in a Dounce glass-glass homogenizer in 1 ml/dish ice-cold TE (50 mM Tris-HCl, pH 7.5 at RT, 5 mM EDTA). This procedure was repeated twice and the resuspended membranes were finally aliqouted and flash frozen in liquid nitrogen and stored at −70° C. until use.
Adenylyl cyclase activity was measured by determining conversion of [α-^32P]ATP to [^32P]cAMP in membranes prepared in STE by homogenization of cells grown and washed as described above in a Dounce glass-glass homogenizer by 10 strokes with the tight-fitting pestle. Membranes were kept on ice prior to assay. Adenylyl cyclase activities were measured on 10-μl aliquots in a final volume of 50 μl in the presence of 0.1 mM [α-^32P]ATP (1-2×10^6 cpm/assay), 4 mM MgCl2, 20 μM GTP, 1 mM EDTA, 1 mM [^3H]cAMP (ca. 10,000 cpm/assay), 1 μM 3-isobutyl-1-methyl xanthine (IBMX; Sigma), a nucleoside triphosphate regenerating system consisting of 20 mM creatine phosphate (Sigma), 0.2 mg/ml creatine phosphokinase (Sigma) and 40 U/ml myokinase (Sigma) and additives described in the text and figures. When forskolin (Calbiochem, La Jolla, Calif., USA) was used the concentration was 100 μM. Incubations were for 20 min at 32° C. Cyclic AMP formed was quantified by the double column chromatography system of Salomon et al. (1974) as modified by Bockaert et al. (1976).
(§3) Binding and adenylyl cyclase data were analyzed by non-linear regression using Microsoft Excel with the Solver add-in, using the below equations.
Activation of adenylyl cyclase—The data were fit to the equation
where a is basal adenylyl cyclase activity, b is maximal adenylyl cyclase activity stimulated by the agonist, c is EC50, and x is the concentration of agonist.

Test [2] has as its target T1, human 5-HT4(b) receptors. As to the kind of experiment: Radioligand binding assay with [3H]GR113808, membranes of HEK293 cells stably expressing human 5-HT4(b) receptors. As to the method: as §1, §2
Binding assays were performed in 96-well, round-bottom microtiter plates with total reaction volumes of 50-200 μl, containing the indicated concentration of [^3H]GR113808 with or without competing unlabelled ligand in a binding buffer containing 50 mM Tris-HCl (pH 7.5 at RT), 1 mM EDTA, 5 mM EGTA, 2 mM MgCl2, 1 mM ascorbate, 0.1% BSA and 100 μM GTP. The plates were incubated at 23° C. for 60 min and harvested onto UniFilter™-96 GF/C™ (Packard Instrument Co., Meriden, Conn., USA), presoaked in 0.3% polyethyleneimine (Sigma), using a Packard FilterMate Universal Harvester with 96-well format, and washed 4-6 times with approximately 0.25 ml/well of ice-cold buffer, containing 50 mM Tris-HCl (pH 7.0 at RT) and 2 mM MgCl2. The filters were dried and counted at approximately 40% efficiency in a Top-Count liquid scintillation counter (Packard), using 20 μl per filter well of Micro-Scint liquid scintillation cocktail (Packard).
as §3
Competitive binding assays—The data were fit to the equation
where a is non-specific binding, b is total binding in the absence of competitor, c is IC50, and x is the concentration of competitor. Where relevant, relative binding data were obtained by recalculating the data using a=0 and b=100.
IC50 values from competitive binding assays were converted to Kb values by the method of Cheng and Prusoff (1973).

[3] abbreviates: [3H]GR113808, HEK293 membranes, human 5-HT4(b), where n = 2, ± half-range, read-out: Binding affinity (pKd value) (pKd ± SEM) (converted).

T1 sequence (Q13639 whole entry): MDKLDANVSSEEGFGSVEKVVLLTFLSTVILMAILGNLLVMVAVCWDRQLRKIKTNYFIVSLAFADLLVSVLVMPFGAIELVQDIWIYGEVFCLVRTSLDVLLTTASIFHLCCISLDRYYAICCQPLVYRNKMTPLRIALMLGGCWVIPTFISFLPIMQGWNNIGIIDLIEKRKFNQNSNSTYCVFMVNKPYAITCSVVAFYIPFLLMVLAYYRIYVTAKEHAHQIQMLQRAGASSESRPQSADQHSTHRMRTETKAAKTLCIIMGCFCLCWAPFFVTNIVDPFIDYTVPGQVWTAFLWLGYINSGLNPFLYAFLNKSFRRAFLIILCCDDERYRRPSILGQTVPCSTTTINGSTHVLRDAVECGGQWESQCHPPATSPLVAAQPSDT

As for `O=C(CCCN1CCC(COC(=O)c2c[nH]c3ccccc23)CC1)OCC(Cl)(Cl)Cl` [Example 12, 1H-indole-3-carboxylic acid 1-[3-(2,2,2-trichloroethyl-ethoxycarbonyl)-propyl]-piperidine-4-ylmethyl ester], the Kb on human 5-HT4(b) receptors [1] was 0.741 nM. The Kd on human 5-HT4(b) receptors [2] (setting [3]) was 5.01 nM.
Take `O=C(O)CCCN1CCC(COC(=O)c2c[nH]c3ccccc23)CC1` [Example 13, 1H-indole-3-carboxylic acid 1-(3-carboxy-propyl)-piperidin-4-ylmethyl ester]: on human 5-HT4(b) receptors [1], the Agonist/Antagonist properties result is recorded as “Antagonist” and the Kb is 7.08 nM. In addition, the Kd at human 5-HT4(b) receptors [2] (setting [3]) was 0.912 nM.
`O=C(O)CCCN1CCC(NC(=O)c2cccc3ccccc23)CC1` [Example 17]: the Kb on human 5-HT4(b) receptors [1] is 38000 nM. Besides, the Kd on human 5-HT4(b) receptors [2] (setting [3]) is 1000 nM.
As for `CCOC(=O)CCCN1CCC(NC(=O)c2cccc3ccccc23)CC1` [Example 18], at human 5-HT4(b) receptors [1], the Agonist/Antagonist properties result is “Antagonist” and the Kb is 3240 nM. On human 5-HT4(b) receptors [2] (setting [3]), the Kd is 1580 nM.
Turning to `O=C(OCC1CCN(Cc2ccccc2)CC1)c1cccc2ccccc12` [Example 22, 1-[(1-benzylpiperidin-4-yl)carboxymethyl] napthalene], on human 5-HT4(b) receptors [1], the Agonist/Antagonist properties entry is “Weak partial” and the Kb was 11.2 nM. Also, at human 5-HT4(b) receptors [2] (setting [3]), the Kd was 42.7 nM.
For `CCOC(=O)CCCN1CCC(COC(=O)c2cccc3ccccc23)CC1` [Example 25] the same measures were “Antagonist”, 6.61 nM and 6.46 nM.
For `O=C(O)CCCN1CCC(COC(=O)c2cccc3ccccc23)CC1` [Example 26] the same measures were “Weak partial”, 69.2 nM and 12.9 nM.
Take `CCOP(=O)(CCN1CCC(COC(=O)c2cccc3ccccc23)CC1)OCC` [Example 27]: on human 5-HT4(b) receptors [1], the Agonist/Antagonist properties entry is on record as “Weak partial” and the Kb is 19.1 nM. Further, the Kd at human 5-HT4(b) receptors [2] (setting [3]) is 15.8 nM.
Taken in the same sequence, the figures for `CC(C)n1nc(C(=O)NC2CCN(Cc3ccccc3)CC2)c2ccccc21` [Example 29, N-(1-benzylpiperidin-4-yl)-1-isopropylindazole-3-carboxamide] were “Partial agonist”, 309 nM and 200 nM.
For `CCOC(=O)CCCN1CCC(NC(=O)c2nn(C(C)C)c3ccccc23)CC1` [Example 31] the same measures were “Partial agonist”, 178 nM and 67.6 nM.
For `CC(C)n1nc(C(=O)NC2CCN(CCCC(=O)O)CC2)c2ccccc21` [Example 33] the same measures were “Partial agonist”, 1050 nM and 692 nM.
Regarding `CC(C)n1nc(C(=O)NC2CCN(Cc3ccc(C(=O)OCC(Cl)(Cl)Cl)cc3)CC2)c2ccccc21` [Example 35], at human 5-HT4(b) receptors [1], the Agonist/Antagonist properties entry was “Partial agonist” and the Kb is 724 nM. Besides, on human 5-HT4(b) receptors [2] (setting [3]), the Kd is 1200 nM.
In the case of `CC(C)n1nc(C(=O)NC2CCN(Cc3ccc(C(=O)O)cc3)CC2)c2ccccc21` [Example 36], the Kb at human 5-HT4(b) receptors [1] was 1150 nM. At human 5-HT4(b) receptors [2] (setting [3]), the Kd is 2190 nM.
As for `CCOC(=O)CCCN1CCC(CNC(=O)c2cc(Cl)c(N)cc2OC)CC1` [Example 40], at human 5-HT4(b) receptors [1], the Agonist/Antagonist properties entry was “Partial agonist” and the Kb was 66.1 nM. For the same compound, the Kd at human 5-HT4(b) receptors [2] (setting [3]) is 20 nM.
Turning to `O=C(NCC1CCN(Cc2ccccc2)CC1)c1c2n(c3ccccc13)CCCO2` [Example 47], at human 5-HT4(b) receptors [1], the Agonist/Antagonist properties entry was “Antagonist” and the Kb is 0.427 nM. The same compound gave a Kd at human 5-HT4(b) receptors [2] of 0.158 nM.
For `CCOC(=O)CCCN1CCC(CNC(=O)c2c3n(c4ccccc24)CCCO3)CC1` [Example 49] the same measures were “Antagonist”, 1.55 nM and 0.123 nM.
Taken in the same sequence, the figures for `COC(=O)CCCCCN1CCC(CNC(=O)c2c3n(c4ccccc24)CCCO3)CC1` [Example 50] were “Antagonist”, 0.759 nM and 0.135 nM.
As for `O=C(CCCN1CCC(CNC(=O)c2c3n(c4ccccc24)CCCO3)CC1)OCC(Cl)(Cl)Cl` [Example 51], the Kb at human 5-HT4(b) receptors [1] was 0.537 nM. Moreover, at human 5-HT4(b) receptors [2], the Kd is 0.263 nM.
For the compound `O=C(O)CCCN1CCC(CNC(=O)c2c3n(c4ccccc24)CCCO3)CC1` [Example 52], the Kb at human 5-HT4(b) receptors [1] is 11 nM. Also, on human 5-HT4(b) receptors [2] (setting [3]), the Kd was 2.09 nM.
As to `CCOP(=O)(CCN1CCC(CNC(=O)c2c3n(c4ccccc24)CCCO3)CC1)OCC` [Example 53], at human 5-HT4(b) receptors [1], the Agonist/Antagonist properties result is reported as “Antagonist” and the Kb was 2.51 nM. The Kd on human 5-HT4(b) receptors [2] (setting [3]) is 1.32 nM.
In the case of `CCOC(=O)CCCN1CCC(CNC(=O)c2c[nH]c3ccccc23)CC1` [Example 60], on human 5-HT4(b) receptors [1], the Agonist/Antagonist properties result is “Antagonist” and the Kb was 1620 nM. In addition, on human 5-HT4(b) receptors [2] (setting [3]), the Kd is 110 nM.
As to `O=C(O)CCCN1CCC(CNC(=O)c2c[nH]c3ccccc23)CC1` [Example 62], on human 5-HT4(b) receptors [1], the Kb is 28200 nM. For the same compound, on human 5-HT4(b) receptors [2] (setting [3]), the Kd is 3630 nM.
On to `O=C(O)CN1CCN(S(=O)(=O)CCCN2CCC(CNC(=O)c3cccc4c3OCCO4)CC2)CC1` [Example 67], for which, at human 5-HT4(b) receptors [1], the Agonist/Antagonist properties entry is recorded as “Antagonist” and the Kb was 2.75 nM. Further, the Kd on human 5-HT4(b) receptors [2] (setting [3]) is 0.813 nM.
Taken in the same sequence, the figures for `Cn1cc(C(=O)OCC2CCN(CCNS(C)(=O)=O)CC2)c2ccccc21` [GR113808, 1-methyl-1H-indole-3-carboxylic acid, [1-[2-[(methylsulfonyl)amino]ethyl]-4-piperidinyl]methyl ester, reference compound] were “Antagonist”, 0.537 nM and 0.0813 nM.
On to `CCCCN1CCC(CNC(=O)c2c3n(c4ccccc24)CCCO3)CC1` [SB207266, reference compound], for which the Agonist/Antagonist properties result on human 5-HT4(b) receptors [1] is “Antagonist”.
